{"source": "patent US20240299591A1", "about": "“Antimicrobial Peptides and Their Use” (priority 2021, published 2024)", "assay_type_in_all_cases": "cell-based", "key": {"Aspergillus fumigatus": {"test_system": "Aspergillus fumigatus", "conditions": "24 h", "method": "The assays were performed using Nunc 262162 U96 polystyrene round bottomed clear plates (www.nuncbrand.com).\n(§1) When testing the peptides against A. fumigatus, peptides at different concentrations were mixed with A. fumigatus conidia to reach a final volume of 100 μL per well. The final conidial concentration was 5×10^5 cells/mL in 10% Vogel's medium. After 24 h of incubation at 37° C. in 96 well plates, fungal growth with the different peptide concentrations was determined by measurement of the optical density at 610 nm in a TriStar LB 941 Multimode Microplate Reader. The IC50 values were determined using four parameter logistic regression formula provided by Sigma Plot 10.0. Values are represented as means±SEM from two independent experiments (n=3).\n(§2) The IC50 of the fluorescently labelled peptides cannot be accurately determined using the optical density method described in the last section. This is because the fluorophore structures absorbed light at 610 nm which was the wavelength used for the optical density measurements. In order to overcome this, the BacTiter-Glo™ Microbial Cell Viability Assay kit purchased from Promega was used. The BacTiter-Glo™ Reagent relies on the properties of a proprietary thermostable luciferase (Ultra-Glo™ Recombinant Luciferase) and a proprietary formulation for extracting ATP from fungal cells which will generates a ‘glow-type’ luminescent signal. This is produced by the luciferase reaction shown in Scheme 1, which has a signal half-life of over 30 min depending on the experimental conditions. The luminescent signal is proportional to the amount of ATP present, which is directly proportional to the number of living cells in culture.\n(§3) The IC50 assays for all fluorescently labelled peptides were performed using Greiner CELLSTAR white polystyrene wells flat bottomed 96 well plates. The incubation conditions remained the same for the optical density measurement described in the previous section. Once the incubation procedure was finished, the plate was equilibrated to room temperature. A mixture of BacTiter-Glo™ buffer and substrate was then added to the plate (100 μL per well). The plate was shaken for 5 min and read using the Tristar […] luminometer. Data analysis was performed using Sigma Plot 10.0. All values shown are presented as means±SEM from two independent experiments (n=3)."}, "Fusarium oxysporum": {"test_system": "Fusarium oxysporum", "conditions": "24 h", "method": "Dose dependent inhibition of fungal growth by all non-labelled peptides (indicated by IC50 values) was determined via this methodology. The assays were performed using Nunc 262162 U96 polystyrene round bottomed clear plates (www.nuncbrand.com).\nas §1\nWhen testing the peptides against N. crassa and F. oxysporum, experiments were carried as described above apart from the incubation temperature was changed to 25° C. for N. crassa and 35° C. for F. oxysporum.\nas §2, §3"}, "[1]": {"test_system": "reconstructed cornea-like epithelium (RhCE, EpiOcular™)", "test": "Viability of reconstructed cornea-like epithelium (eye irritation model)", "method": "(§4) FIG. 4a is a graph of the viability reconstructed cornea-like epithelium (RhCE, EpiOcular™) after incubation with MFIGA001. NC=Negative Control; PC=Positive Control. FIG. 4b is a graph of the viability reconstructed cornea-like epithelium (RhCE, EpiOcular™) after incubation with 10 µM of MFIGA001a and MFIGAF001b. NC=Negative Control; PC=Positive Control; A2=MFIGAF001a; and B1=MFIGAF001b.\n(§5) MFIGAF001 was also assessed independently by a CRO (Evotec) in an OECD compliant reconstructed cornea-like epithelial cell model (RhCE, EpiOcular™)."}, "[2]": {"test": "Viability of reconstructed cornea-like epithelium (eye irritation model)", "conditions": "human, reconstructed cornea-like epithelium (RhCE, EpiOcular™)", "method": "as §4, §5"}, "[3]": {"test_system": "C. albicans, F. oxysporum, A. fumigatus, and C. neoformans", "test": "Live cell imaging, fluorescent labelling of pathogenic fungi", "set-up": "dose or concentration left out as unconfirmed", "conditions": "15 min incubation at 37° C. in RPMI", "method": "The N. crassa mat A WT used for confocal live-cell imaging was grown on 100% Vogel's agar medium at 25° C. for 3-5 days before the spores were harvested. The A. fumigatus CEA10 strain used for confocal live-cell imaging was grown on 100% Vogel's medium at 37° C. for 4-5 days before the spores were harvested. Before the confocal experiments were performed, N. crassa spores were incubated in eight-well slide culture chambers for 3 h at 25° C. in liquid 10% Vogel's medium and A. fumigatus spores were incubated for 16 h at 25° C. in liquid 10% Vogel's medium in order to allow germination to fully take place for imaging.\nLive-cell imaging of germinated fungi spores was performed using a Leica TCS SP8 confocal laser scanning microscope equipped with photo multiplier tubes (PMT), hybrid GaAsP (HyD) detectors and a 63× water immersion objective. A Leica turntable white light laser (WLL, 450-750 nm), argon laser (458 nm, 476 nm, 488 nm and 496 nm) and UV laser (405 nm) were used for fluorescence excitation.\nThe major pathogenic fungi include C. albicans, F. oxysporum, A. fumigatus, and C. neoformans."}}, "note": "Where a SMILES comes first, the peptide text is derived from it. [ ]: non-standard residue; d: D form. The star is where a group is joined. X1 = CN1/C(=C/C=C(/C=C/C2=[N+](C)c3ccccc3C2(C)C)c2ccc(C(=O)*)cn2)C(C)(C)c2ccccc21; X2 = O=C1OC2(c3ccc(O)cc3Oc3cc(O)ccc32)c2cccc(C(=O)*)c21"}
{"compound": "N=C(N)NCCC[C@@H]1NC(=O)[C@H](CCCCNC(=O)c2cccc3c2C(=O)OC32c3ccc(O)cc3Oc3cc(O)ccc32)NC(=O)[C@H](Cc2c[nH]c3ccccc23)NC(=O)[C@H](Cc2ccccc2)NC(=O)[C@H](Cc2c[nH]c3ccccc23)NC(=O)[C@@H](Cc2ccccc2)NC(=O)[C@H](CCCCN)NC(=O)[C@H](CCCCN)NC1=O", "note": "[MFIGAF001d, Cyclo(Arg-Lys-Lys-phe-Trp-Phe-Trp-Lys(CF))] (cyclo(FWK(X2)RKK[dF]W))", "values": [{"measurement": "IC50 Aspergillus fumigatus", "setting": "Aspergillus fumigatus", "value": 2.9, "unit": "µg/mL"}, {"measurement": "IC50 Fusarium oxysporum", "setting": "Fusarium oxysporum", "value": 3.0, "unit": "µg/mL"}]}
{"compound": "CN1/C(=C/C=C(/C=C/C2=[N+](C)c3ccccc3C2(C)C)c2ccc(C(=O)NCCCC[C@@H]3NC(=O)[C@H](Cc4c[nH]c5ccccc45)NC(=O)[C@H](Cc4ccccc4)NC(=O)[C@H](Cc4c[nH]c5ccccc45)NC(=O)[C@@H](Cc4ccccc4)NC(=O)[C@H](CCCCN)NC(=O)[C@H](CCCCN)NC(=O)[C@H](CCCNC(=N)N)NC3=O)cn2)C(C)(C)c2ccccc21", "note": "[MFIGAF001c, Cyclo(Arg-Lys-Lys-phe-Trp-Phe-Trp-Lys(Cy5))] (cyclo(FWK(X1)RKK[dF]W))", "values": [{"measurement": "IC50 Aspergillus fumigatus", "setting": "Aspergillus fumigatus", "value": 1.5, "unit": "µg/mL"}, {"measurement": "IC50 Fusarium oxysporum", "setting": "Fusarium oxysporum", "value": 1.8, "unit": "µg/mL"}]}
{"compound": "C[C@H]1NC(=O)[C@H](CCCCN)NC(=O)[C@H](CCCCN)NC(=O)[C@H](CCCNC(=N)N)NC(=O)CNC(=O)[C@H](Cc2c[nH]c3ccccc23)NC(=O)[C@H](Cc2ccccc2)NC(=O)[C@H](Cc2c[nH]c3ccccc23)NC1=O", "note": "[MFIGAF005, Cyclo(Arg-Lys-Lys-ala-Trp-Phe-Trp-Gly)] (HELM PEPTIDE1{F.W.G.R.K.K.[dA].W}$PEPTIDE1,PEPTIDE1,1:R1-8:R2$$$V2.0)", "values": [{"measurement": "IC50 Aspergillus fumigatus", "setting": "Aspergillus fumigatus", "value": 6.3, "unit": "µg/mL"}, {"measurement": "IC50 Fusarium oxysporum", "setting": "Fusarium oxysporum", "value": 3.1, "unit": "µg/mL"}]}
{"compound": "H-RKKWFW-NH2 [PAF26, NH2-Arg-Lys-Lys-Trp-Phe-Trp-CONH2, reference compound]", "values": [{"measurement": "IC50 Aspergillus fumigatus", "setting": "Aspergillus fumigatus", "value": 8.0, "unit": "µg/mL"}, {"measurement": "IC50 Fusarium oxysporum", "setting": "Fusarium oxysporum", "value": 7.2, "unit": "µg/mL"}]}
{"compound": "N=C(N)NCCC[C@@H]1NC(=O)CNC(=O)[C@H](Cc2c[nH]c3ccccc23)NC(=O)[C@H](Cc2ccccc2)NC(=O)[C@H](Cc2c[nH]c3ccccc23)NC(=O)[C@@H]2CCCN2C(=O)[C@H](CCCCN)NC(=O)[C@H](CCCCN)NC1=O", "note": "[MFIGAF007, Cyclo(Arg-Lys-Lys-pro-Trp-Phe-Trp-Gly)]", "values": [{"measurement": "IC50 Aspergillus fumigatus", "setting": "Aspergillus fumigatus", "value": 5.2, "unit": "µg/mL"}, {"measurement": "IC50 Fusarium oxysporum", "setting": "Fusarium oxysporum", "value": 3.4, "unit": "µg/mL"}]}
{"compound": "N=C(N)NCCC[C@@H]1NC(=O)CNC(=O)[C@H](Cc2c[nH]c3ccccc23)NC(=O)[C@H](Cc2ccccc2)NC(=O)[C@H](Cc2c[nH]c3ccccc23)NC(=O)[C@H]2CCCN2C(=O)[C@H](CCCCN)NC(=O)[C@H](CCCCN)NC1=O", "note": "[MFIGAF008]", "values": [{"measurement": "IC50 Aspergillus fumigatus", "setting": "Aspergillus fumigatus", "value": 5.5, "unit": "µg/mL"}, {"measurement": "IC50 Fusarium oxysporum", "setting": "Fusarium oxysporum", "value": 3.8, "unit": "µg/mL"}]}
{"compound": "N=C(N)NCCC[C@@H]1NC(=O)CNC(=O)[C@H](CCCCNC(=O)c2cccc3c2C(=O)OC32c3ccc(O)cc3Oc3cc(O)ccc32)NC(=O)[C@H](Cc2c[nH]c3ccccc23)NC(=O)[C@H](Cc2ccccc2)NC(=O)[C@H](Cc2c[nH]c3ccccc23)NC(=O)[C@@H](Cc2ccccc2)NC(=O)[C@H](CCCCN)NC(=O)[C@H](CCCCN)NC1=O", "note": "[MFIGAF001b, Cyclo(Arg-Lys-Lys-phe-Trp-Phe-Trp-Lys(CF)-Gly)] (cyclo(FWK(X2)GRKK[dF]W))", "values": [{"measurement": "IC50 Aspergillus fumigatus", "setting": "Aspergillus fumigatus", "value": 2.1, "unit": "µg/mL"}, {"measurement": "IC50 Fusarium oxysporum", "setting": "Fusarium oxysporum", "value": 2.3, "unit": "µg/mL"}, {"measurement": "Toxicity, reconstructed cornea-like epithelium (FIG. 4)", "setting": "[1]", "value": "no obvious toxicity"}, {"measurement": "viability at 10 µM", "setting": "[2]", "value": 99.1, "unit": "%"}, {"measurement": "Fluorescent labelling of pathogenic fungi", "setting": "[3]", "value": "label all major pathogenic fungi that cause fungal keratitis"}]}
{"compound": "C[C@@H](NC(=O)[C@H](CCCCN)NC(=O)[C@H](CCCCN)NC(=O)[C@@H](N)CCCNC(=N)N)C(=O)N[C@@H](Cc1c[nH]c2ccccc12)C(=O)N[C@@H](Cc1ccccc1)C(=O)N[C@@H](Cc1c[nH]c2ccccc12)C(=O)NCC(=O)O", "note": "[MFIGAF000, NH2-Arg-Lys-Lys-ala-Trp-Phe-Trp-Gly-COOH] (HELM PEPTIDE1{R.K.K.[dA].W.F.W.G}$$$$V2.0)", "values": [{"measurement": "IC50 Aspergillus fumigatus", "setting": "Aspergillus fumigatus", "value": 5.3, "unit": "µg/mL"}, {"measurement": "IC50 Fusarium oxysporum", "setting": "Fusarium oxysporum", "value": 4.2, "unit": "µg/mL"}]}
{"compound": "N=C(N)NCCC[C@H](N)C(=O)N[C@@H](CCCCN)C(=O)N[C@@H](CCCCN)C(=O)N1CCC[C@@H]1C(=O)N[C@@H](Cc1c[nH]c2ccccc12)C(=O)N[C@@H](Cc1ccccc1)C(=O)N[C@@H](Cc1c[nH]c2ccccc12)C(=O)NCC(=O)O", "note": "[MFIGAF004]", "values": [{"measurement": "IC50 Aspergillus fumigatus", "setting": "Aspergillus fumigatus", "value": 5.2, "unit": "µg/mL"}, {"measurement": "IC50 Fusarium oxysporum", "setting": "Fusarium oxysporum", "value": 4.1, "unit": "µg/mL"}]}
{"compound": "N=C(N)NCCC[C@H](N)C(=O)N[C@@H](CCCCN)C(=O)N[C@@H](CCCCN)C(=O)N[C@H](Cc1ccccc1)C(=O)N[C@@H](Cc1c[nH]c2ccccc12)C(=O)N[C@@H](Cc1ccccc1)C(=O)N[C@@H](Cc1c[nH]c2ccccc12)C(=O)NCC(=O)O", "note": "[MFIGAF002, NH2-Arg-Lys-Lys-phe-Trp-Phe-Trp-Gly-COOH] (HELM PEPTIDE1{R.K.K.[dF].W.F.W.G}$$$$V2.0)", "values": [{"measurement": "IC50 Aspergillus fumigatus", "setting": "Aspergillus fumigatus", "value": 2.8, "unit": "µg/mL"}, {"measurement": "IC50 Fusarium oxysporum", "setting": "Fusarium oxysporum", "value": 3.5, "unit": "µg/mL"}]}
{"compound": "N=C(N)NCCC[C@H](N)C(=O)N[C@@H](CCCCN)C(=O)N[C@@H](CCCCN)C(=O)N1CCC[C@H]1C(=O)N[C@@H](Cc1c[nH]c2ccccc12)C(=O)N[C@@H](Cc1ccccc1)C(=O)N[C@@H](Cc1c[nH]c2ccccc12)C(=O)NCC(=O)O", "note": "[MFIGAF003, NH2-Arg-Lys-Lys-pro-Trp-Phe-Trp-Gly-COOH]", "values": [{"measurement": "IC50 Aspergillus fumigatus", "setting": "Aspergillus fumigatus", "value": 5.2, "unit": "µg/mL"}, {"measurement": "IC50 Fusarium oxysporum", "setting": "Fusarium oxysporum", "value": 4.1, "unit": "µg/mL"}]}
